Assay results as given in ChEMBL document CHEMBL4507325 (2021).

Experiments:
[1] = molecular target: D(1A) dopamine receptor (Homo sapiens) (UniProt P21728); conditions: Compound concentration 10.0 uM
[2] = molecular target: Estrogen receptor (Homo sapiens) (UniProt P03372); conditions: Compound concentration 10.0 uM
[3] = molecular target: Muscarinic acetylcholine receptor M3 (Homo sapiens) (UniProt P20309); conditions: Compound concentration 10.0 uM
[4] = molecular target: D(3) dopamine receptor (Homo sapiens) (UniProt P35462); conditions: Compound concentration 10.0 uM
D(3) dopamine receptor (Homo sapiens), sequence (P35462 whole entry): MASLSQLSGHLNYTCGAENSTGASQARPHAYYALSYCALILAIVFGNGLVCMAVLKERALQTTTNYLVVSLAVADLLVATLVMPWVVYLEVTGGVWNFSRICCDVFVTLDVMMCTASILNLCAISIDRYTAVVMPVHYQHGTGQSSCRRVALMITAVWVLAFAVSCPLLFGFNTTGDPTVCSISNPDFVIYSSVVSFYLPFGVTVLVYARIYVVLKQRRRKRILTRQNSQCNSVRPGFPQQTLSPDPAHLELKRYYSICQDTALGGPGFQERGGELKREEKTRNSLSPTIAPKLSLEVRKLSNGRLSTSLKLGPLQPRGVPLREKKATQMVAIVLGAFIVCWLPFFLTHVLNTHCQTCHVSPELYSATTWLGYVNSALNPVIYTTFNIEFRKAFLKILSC

[5] = molecular target: B2 bradykinin receptor (Homo sapiens) (UniProt P30411); conditions: Compound concentration 10.0 uM
[6] = molecular target: Muscarinic acetylcholine receptor M4 (Homo sapiens) (UniProt P08173); conditions: Compound concentration 10.0 uM
[7] = molecular target: Muscarinic acetylcholine receptor M2 (Homo sapiens) (UniProt P08172); conditions: Compound concentration 10.0 uM
Muscarinic acetylcholine receptor M2 (Homo sapiens), sequence (P08172 whole entry): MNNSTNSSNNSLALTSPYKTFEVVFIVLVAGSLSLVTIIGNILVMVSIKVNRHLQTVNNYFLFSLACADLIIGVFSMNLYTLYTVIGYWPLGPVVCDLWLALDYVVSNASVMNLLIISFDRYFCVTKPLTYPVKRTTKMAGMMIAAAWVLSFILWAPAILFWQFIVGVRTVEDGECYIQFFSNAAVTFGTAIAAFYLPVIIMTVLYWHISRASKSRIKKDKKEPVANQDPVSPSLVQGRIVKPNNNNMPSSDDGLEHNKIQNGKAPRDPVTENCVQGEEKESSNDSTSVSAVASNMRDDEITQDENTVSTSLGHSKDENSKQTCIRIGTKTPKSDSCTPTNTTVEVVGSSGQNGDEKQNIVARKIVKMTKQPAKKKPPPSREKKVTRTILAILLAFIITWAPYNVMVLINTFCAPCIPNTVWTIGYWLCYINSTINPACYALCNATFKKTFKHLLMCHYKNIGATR

[8] = molecular target: D(2) dopamine receptor (Homo sapiens) (UniProt P14416); conditions: Compound concentration 10.0 uM
D(2) dopamine receptor (Homo sapiens), sequence (P14416 whole entry): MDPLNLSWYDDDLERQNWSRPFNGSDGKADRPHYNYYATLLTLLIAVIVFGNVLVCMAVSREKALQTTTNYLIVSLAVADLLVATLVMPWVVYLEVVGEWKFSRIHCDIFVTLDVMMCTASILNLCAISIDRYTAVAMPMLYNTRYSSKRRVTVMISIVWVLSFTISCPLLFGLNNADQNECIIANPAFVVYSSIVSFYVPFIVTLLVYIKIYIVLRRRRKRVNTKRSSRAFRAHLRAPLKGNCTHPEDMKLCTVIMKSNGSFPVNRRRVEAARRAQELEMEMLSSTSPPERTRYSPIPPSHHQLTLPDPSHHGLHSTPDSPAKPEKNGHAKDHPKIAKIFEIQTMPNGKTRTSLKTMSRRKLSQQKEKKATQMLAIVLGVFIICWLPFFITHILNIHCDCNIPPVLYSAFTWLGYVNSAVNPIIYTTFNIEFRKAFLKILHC

Homo sapiens = organism: Homo sapiens; conditions: Compound concentration 10.0 uM
[9] = molecular target: D(1B) dopamine receptor (Homo sapiens) (UniProt P21918); conditions: Compound concentration 10.0 uM
[10] = molecular target: 5-hydroxytryptamine receptor 2B (Homo sapiens) (UniProt P41595); conditions: Compound concentration 10.0 uM
[11] = molecular target: Delta-type opioid receptor (Homo sapiens) (UniProt P41143); conditions: Compound concentration 10.0 uM
[12] = molecular target: D(2) dopamine receptor (Homo sapiens) (UniProt P14416); conditions: Compound concentration 10.0 uM; remark: listed apart in the source
[13] = molecular target: Type-2 angiotensin II receptor (Homo sapiens) (UniProt P50052); conditions: Compound concentration 10.0 uM
[14] = molecular target: Sigma non-opioid intracellular receptor 1 (Homo sapiens) (UniProt Q99720); conditions: Compound concentration 10.0 uM
Sigma non-opioid intracellular receptor 1 (Homo sapiens), sequence (Q99720 whole entry): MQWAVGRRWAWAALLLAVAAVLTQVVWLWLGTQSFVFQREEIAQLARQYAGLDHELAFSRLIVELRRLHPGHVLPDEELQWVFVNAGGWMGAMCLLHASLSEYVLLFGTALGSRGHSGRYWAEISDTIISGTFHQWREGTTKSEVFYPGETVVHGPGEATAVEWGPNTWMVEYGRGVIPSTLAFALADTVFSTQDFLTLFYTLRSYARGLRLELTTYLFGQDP

[15] = molecular target: Beta-1 adrenergic receptor (Homo sapiens) (UniProt P08588); conditions: Compound concentration 10.0 uM
[16] = molecular target: Alpha-2C adrenergic receptor (Homo sapiens) (UniProt P18825); conditions: Compound concentration 10.0 uM
Alpha-2C adrenergic receptor (Homo sapiens), sequence (P18825 whole entry): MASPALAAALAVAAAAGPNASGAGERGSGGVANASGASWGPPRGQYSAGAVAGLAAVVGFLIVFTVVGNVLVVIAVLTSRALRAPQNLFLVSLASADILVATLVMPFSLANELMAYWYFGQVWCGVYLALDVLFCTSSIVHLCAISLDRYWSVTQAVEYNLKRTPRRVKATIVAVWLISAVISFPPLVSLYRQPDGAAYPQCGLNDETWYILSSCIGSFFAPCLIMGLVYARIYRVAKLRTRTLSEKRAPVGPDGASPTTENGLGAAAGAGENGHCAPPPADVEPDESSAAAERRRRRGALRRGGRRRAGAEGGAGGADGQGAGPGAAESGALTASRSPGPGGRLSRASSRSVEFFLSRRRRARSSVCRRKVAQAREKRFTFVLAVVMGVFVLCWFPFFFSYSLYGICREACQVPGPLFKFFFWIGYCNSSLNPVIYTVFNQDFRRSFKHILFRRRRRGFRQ

[17] = molecular target: Muscarinic acetylcholine receptor M2 (Homo sapiens) (UniProt P08172); conditions: Compound concentration 10.0 uM; remark: listed apart in the source
[18] = molecular target: Kappa-type opioid receptor (Homo sapiens) (UniProt P41145); conditions: Compound concentration 10.0 uM
Kappa-type opioid receptor (Homo sapiens), sequence (P41145 whole entry): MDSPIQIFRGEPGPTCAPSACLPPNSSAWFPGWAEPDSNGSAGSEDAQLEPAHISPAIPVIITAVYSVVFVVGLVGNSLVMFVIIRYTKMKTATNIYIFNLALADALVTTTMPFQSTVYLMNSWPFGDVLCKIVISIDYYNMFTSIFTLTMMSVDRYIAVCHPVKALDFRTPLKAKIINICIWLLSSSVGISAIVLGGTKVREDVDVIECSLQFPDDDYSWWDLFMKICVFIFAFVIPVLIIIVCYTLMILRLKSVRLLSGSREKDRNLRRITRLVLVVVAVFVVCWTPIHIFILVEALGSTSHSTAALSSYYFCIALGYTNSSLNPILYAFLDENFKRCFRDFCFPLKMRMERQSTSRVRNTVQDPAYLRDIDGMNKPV

[19] = molecular target: Sigma intracellular receptor 2 (Homo sapiens) (UniProt Q5BJF2); conditions: Compound concentration 10.0 uM
[20] = molecular target: Alpha-2C adrenergic receptor (Homo sapiens) (UniProt P18825); conditions: Compound concentration 10.0 uM; remark: listed apart in the source
[21] = molecular target: Alpha-1A adrenergic receptor (Homo sapiens) (UniProt P35348); conditions: Rattus norvegicus; Compound concentration 10.0 uM
[22] = molecular target: D(4) dopamine receptor (Homo sapiens) (UniProt P21917); conditions: Compound concentration 10.0 uM
[23] = molecular target: Alpha-1B adrenergic receptor (Homo sapiens) (UniProt P35368); conditions: Compound concentration 10.0 uM
[24] = molecular target: T1, GABA-A receptor; anion channel (Rattus norvegicus) (UniProt O09028+P15431+P18506+P18508+P19969+P20236+P23574+P23576+P28471+P28473+P30191+P62813+P63079+P63138+Q91ZM7+Q9ES14); conditions: Compound concentration 10.0 uM
Rattus norvegicus = organism: Rattus norvegicus; conditions: Compound concentration 10.0 uM
[25] = molecular target: Glutamate NMDA receptor (Rattus norvegicus) (UniProt P35439+Q00959+Q00960+Q00961+Q62645+Q8VHN2+Q9R1M7); conditions: Compound concentration 10.0 uM
[26] = molecular target: Histamine H1 receptor (Homo sapiens) (UniProt P35367); conditions: Compound concentration 10.0 uM
Histamine H1 receptor (Homo sapiens), sequence (P35367 whole entry): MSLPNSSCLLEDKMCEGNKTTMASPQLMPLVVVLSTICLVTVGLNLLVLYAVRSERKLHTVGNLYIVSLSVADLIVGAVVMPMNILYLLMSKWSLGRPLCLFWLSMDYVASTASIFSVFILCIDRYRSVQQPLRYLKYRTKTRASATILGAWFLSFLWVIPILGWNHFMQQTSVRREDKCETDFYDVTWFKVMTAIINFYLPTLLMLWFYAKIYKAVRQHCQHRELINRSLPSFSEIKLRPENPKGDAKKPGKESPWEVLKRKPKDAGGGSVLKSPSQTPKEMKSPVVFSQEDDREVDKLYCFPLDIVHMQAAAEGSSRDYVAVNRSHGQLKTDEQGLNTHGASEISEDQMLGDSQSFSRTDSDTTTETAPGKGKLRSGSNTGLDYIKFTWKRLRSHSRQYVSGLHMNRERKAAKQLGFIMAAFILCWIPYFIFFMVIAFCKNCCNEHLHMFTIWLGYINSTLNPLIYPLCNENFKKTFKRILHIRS

[27] = molecular target: Sodium-dependent noradrenaline transporter (Homo sapiens) (UniProt P23975); conditions: Compound concentration 10.0 uM
Sodium-dependent noradrenaline transporter (Homo sapiens), sequence (P23975 whole entry): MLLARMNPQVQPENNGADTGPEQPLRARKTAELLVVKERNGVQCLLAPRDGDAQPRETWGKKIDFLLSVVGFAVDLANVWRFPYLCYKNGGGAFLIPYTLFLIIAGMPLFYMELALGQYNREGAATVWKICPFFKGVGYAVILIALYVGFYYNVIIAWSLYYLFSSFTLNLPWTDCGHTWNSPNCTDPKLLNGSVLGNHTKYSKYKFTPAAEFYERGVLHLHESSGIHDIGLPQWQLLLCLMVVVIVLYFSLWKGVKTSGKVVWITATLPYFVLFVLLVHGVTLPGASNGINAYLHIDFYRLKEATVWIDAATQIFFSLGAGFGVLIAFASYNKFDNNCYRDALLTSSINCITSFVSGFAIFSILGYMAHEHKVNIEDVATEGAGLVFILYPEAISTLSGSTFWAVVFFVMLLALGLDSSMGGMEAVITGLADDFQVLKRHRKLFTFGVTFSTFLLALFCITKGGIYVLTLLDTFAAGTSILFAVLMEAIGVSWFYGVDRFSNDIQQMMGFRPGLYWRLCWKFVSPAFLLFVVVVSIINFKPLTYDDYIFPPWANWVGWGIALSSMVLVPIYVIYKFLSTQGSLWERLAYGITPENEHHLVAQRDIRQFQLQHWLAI

[28] = molecular target: Muscarinic acetylcholine receptor M1 (Homo sapiens) (UniProt P11229); conditions: Compound concentration 10.0 uM
[29] = molecular target: Alpha-2A adrenergic receptor (Homo sapiens) (UniProt P08913); conditions: Compound concentration 10.0 uM
Alpha-2A adrenergic receptor (Homo sapiens), sequence (P08913 whole entry): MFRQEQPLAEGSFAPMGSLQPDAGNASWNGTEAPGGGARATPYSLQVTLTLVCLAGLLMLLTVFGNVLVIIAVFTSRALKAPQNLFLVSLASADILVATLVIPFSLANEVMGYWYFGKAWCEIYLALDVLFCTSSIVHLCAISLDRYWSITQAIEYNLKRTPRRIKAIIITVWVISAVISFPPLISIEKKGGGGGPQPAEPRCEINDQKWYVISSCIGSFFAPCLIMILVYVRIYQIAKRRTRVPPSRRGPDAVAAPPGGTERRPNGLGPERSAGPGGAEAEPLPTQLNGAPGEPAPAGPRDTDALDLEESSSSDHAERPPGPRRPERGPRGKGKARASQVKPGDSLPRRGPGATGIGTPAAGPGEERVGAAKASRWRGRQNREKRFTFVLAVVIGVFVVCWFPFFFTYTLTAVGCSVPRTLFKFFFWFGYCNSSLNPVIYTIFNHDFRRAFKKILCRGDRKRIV

[30] = molecular target: Sodium-dependent serotonin transporter (Homo sapiens) (UniProt P31645); conditions: Compound concentration 10.0 uM
[31] = molecular target: Equilibrative nucleoside transporter 1/2/3/4 (Homo sapiens) (UniProt Q99808+Q7RTT9+Q14542+Q9BZD2); conditions: Compound concentration 10.0 uM
[32] = molecular target: Glutamate receptor 2 (Homo sapiens) (UniProt P42262); conditions: Rattus norvegicus; Compound concentration 10.0 uM
Oryctolagus cuniculus = organism: Oryctolagus cuniculus; conditions: Compound concentration 10.0 uM
[33] = molecular target: Insulin receptor (Homo sapiens) (UniProt P06213); conditions: Rattus norvegicus; Compound concentration 10.0 uM
[34] = molecular target: 5-hydroxytryptamine receptor 6 (Homo sapiens) (UniProt P50406); conditions: Compound concentration 10.0 uM
[35] = molecular target: Vasopressin V1a receptor (Homo sapiens) (UniProt P37288); conditions: Compound concentration 10.0 uM
[36] = molecular target: T1, GABA-A receptor; anion channel (Rattus norvegicus); conditions: Compound concentration 10.0 uM; remark: listed apart in the source
[37] = molecular target: Kappa-type opioid receptor (Homo sapiens) (UniProt P41145); conditions: Compound concentration 10.0 uM; remark: listed apart in the source
[38] = molecular target: Cannabinoid receptor 1 (Homo sapiens) (UniProt P21554); conditions: Compound concentration 10.0 uM
[39] = molecular target: Cannabinoid receptor 2 (Homo sapiens) (UniProt P34972); conditions: Compound concentration 10.0 uM
Cannabinoid receptor 2 (Homo sapiens), sequence (P34972 whole entry): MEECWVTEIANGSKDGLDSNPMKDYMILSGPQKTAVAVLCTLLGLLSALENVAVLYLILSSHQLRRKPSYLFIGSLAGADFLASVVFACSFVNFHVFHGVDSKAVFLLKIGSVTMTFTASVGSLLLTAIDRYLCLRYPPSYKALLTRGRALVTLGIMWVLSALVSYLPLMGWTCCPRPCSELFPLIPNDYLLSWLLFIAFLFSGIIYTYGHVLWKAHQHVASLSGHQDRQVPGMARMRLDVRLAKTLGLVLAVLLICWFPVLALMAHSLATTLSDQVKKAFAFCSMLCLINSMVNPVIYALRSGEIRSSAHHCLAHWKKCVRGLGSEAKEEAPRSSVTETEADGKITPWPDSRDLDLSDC

[40] = molecular target: Histamine H2 receptor (Homo sapiens) (UniProt P25021); conditions: Compound concentration 10.0 uM
[41] = molecular target: Progesterone receptor (Homo sapiens) (UniProt P06401); conditions: Compound concentration 10.0 uM
[42] = molecular target: Sodium-dependent noradrenaline transporter (Homo sapiens) (UniProt P23975); conditions: Compound concentration 10.0 uM; remark: listed apart in the source

Estrogen receptor (Homo sapiens), sequence (P03372 whole entry): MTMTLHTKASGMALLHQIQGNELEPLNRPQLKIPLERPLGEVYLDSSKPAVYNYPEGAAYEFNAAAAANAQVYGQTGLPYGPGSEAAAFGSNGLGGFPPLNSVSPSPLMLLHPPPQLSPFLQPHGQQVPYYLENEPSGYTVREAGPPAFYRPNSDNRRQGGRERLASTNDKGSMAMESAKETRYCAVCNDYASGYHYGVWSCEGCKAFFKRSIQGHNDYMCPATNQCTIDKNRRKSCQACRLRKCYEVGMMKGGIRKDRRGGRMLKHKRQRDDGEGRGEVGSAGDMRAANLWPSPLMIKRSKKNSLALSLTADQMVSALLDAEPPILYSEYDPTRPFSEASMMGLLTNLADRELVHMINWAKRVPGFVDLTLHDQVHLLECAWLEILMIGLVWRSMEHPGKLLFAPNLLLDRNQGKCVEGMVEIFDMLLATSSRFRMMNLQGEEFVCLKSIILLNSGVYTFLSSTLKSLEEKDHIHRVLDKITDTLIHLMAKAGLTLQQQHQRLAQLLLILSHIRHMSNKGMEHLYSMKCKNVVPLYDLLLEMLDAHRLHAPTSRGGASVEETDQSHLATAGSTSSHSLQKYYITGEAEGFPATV

inhibition [1]: -0.83% | inhibition [2]: 6% | inhibition [3]: -7% | inhibition [4]: 14% | inhibition [5]: 1% | inhibition [6]: -8.67% | inhibition [7]: 39.2% | inhibition [8]: -5% | inhibition (Homo sapiens): -8% | inhibition [9]: 18.7% | inhibition [10]: 1% | inhibition [11]: 14.5% | inhibition [12]: -5% | inhibition [13]: 6% | inhibition [14]: 19% | inhibition [15]: 3% | inhibition [16]: 6% | inhibition [17]: 4% | inhibition [18]: -7% | inhibition [19]: -7.5% | inhibition [20]: 10.8% | inhibition [21]: 5% | inhibition [22]: 9.05% | inhibition [23]: 19.3% | inhibition [24]: 4% | inhibition (Rattus norvegicus): 46% | inhibition [25]: -2% | inhibition [26]: 10.3% | inhibition [27]: -1.01% | inhibition [28]: 8% | inhibition [29]: 2% | inhibition [30]: 3% | inhibition [31]: 28% | inhibition [32]: 11% | inhibition (Oryctolagus cuniculus): 11% | inhibition [33]: 15% | inhibition [34]: 13% | inhibition [35]: 7% | inhibition [36]: 11.3% | inhibition [37]: 37.5% | inhibition [38]: 16% | inhibition [39]: -5% | inhibition [40]: 5.46% | inhibition [41]: -4% | inhibition [42]: 22%
Structure (SMILES): Cc1ccccc1Oc1cc(-n2c(=O)cc(C(F)(F)F)[nH]c2=O)c2ccccc2c1Cl [BAY-069]
